Measurements from patent US20250195553A1, “Use of Genipin-1-B-D-Gentiobioside in Preparation of Drug” (Guizhou Bailing Group Pharmaceutical Co., Ltd., priority 2023, published 2025).
“And” between values parts separate entries of the source, which are not always exact repeats. Identical values can stand only once. Like-named read-outs stand apart in the source and are kept apart here. Marks after values point to notes of the source that are not given here.

Assays:
[1] = system: Human Respiratory Syncytial Virus (RSV); experiment: RSV viral load in mouse lung tissue (RT-PCR), nebulization; format: in vivo
Protocol: […] Each group consisted of 10 mice, with an equal number of males and females. Except for the normal control group, all mice were lightly anesthetized with isoflurane and infected with respiratory syncytial virus (RSV) via intranasal administration, with each mouse receiving 35 μl of the virus. On the day of infection, the treatment groups began inhalation administration. Each group received nebulization for 25 minutes once daily for four consecutive days. The normal control group and the model control group received nebulized saline under the same conditions. On the fifth day, after weighing, the mice were sacrificed by cervical dislocation, and their lung tissues were dissected, weighed, and used to calculate the lung index and lung index inhibition rate. The lung tissues were also retained for virus load, pathological examination, and inflammatory factor detection. The results were statistically analyzed using the t-test for intergroup comparisons.
After dissecting the mice, the lung tissues were collected and stored in separate containers at −80° C. in a low-temperature freezer. The lung tissues were then removed from the −80° C. freezer and placed in a clean mortar. A small amount of liquid nitrogen was poured into the mortar, and the tissues were ground into powder using a pestle. The powder was collected in a 1.5 ml centrifuge tube, and 1 ml of TRIzol Reagent was immediately added. The tube was gently tapped at the bottom to mix the sample and ensure it was resuspended as soon as possible. The centrifuge tube was then placed horizontally at room temperature and incubated for 20 minutes. Next, it was centrifuged at 4° C. and 12,000 rpm for 10 minutes. The clear supernatant was transferred to a new 1.5 ml centrifuge tube, and 0.2 ml of chloroform was added. The tube was tightly capped, vigorously shaken for 15 seconds, and then incubated at room temperature for 2-3 minutes until the liquid separated into layers. After centrifuging at 4° C. and 12,000 rpm for 15 minutes, the transparent supernatant was carefully transferred to a new 1.5 ml centrifuge tube. Then, 0.5 ml of isopropanol was added, mixed well, and incubated at room temperature for 30 minutes. Following centrifugation at 4° C. and 12,000 rpm for 10 minutes, the supernatant was discarded. The precipitate was gently washed with 1 ml of 75% ethanol (to allow the white precipitate to float slightly), and then centrifuged at 4° C. and 7,500 rpm for 5 minutes. The supernatant was completely aspirated, and the RNA precipitate was briefly dried for 5-10 minutes. The precipitate was then dissolved in 20 μl of DEPC (Diethylpyrocarbonate)-treated water and stored in a −80° C. low-temperature freezer.
Treatment of Control Nucleic Acid: DEPC-H2O was used as a negative control. For the positive control, a series of four concentrations were prepared by gradient dilution at 10^7, 10^6, 10^5, and 10^4 copies/ml.
Reagent Preparation: Mix n×18 μl of RSV nucleic acid fluorescent PCR detection mixture, n×1 μl of internal control, and n×1 μl of RT-PCR enzyme (where n is the number of reaction tubes). Shake vigorously for a few seconds and centrifuge at 3000 rpm for a few seconds.
Sample Addition: Dispense 20 μl of the above mixture into each PCR tube. Then, add 5 μl of sample nucleic acid extract, DEPC-H2O, and positive control to the respective PCR tubes. Tightly close the tube caps, centrifuge for a few seconds to ensure all liquids are at the bottom, and immediately proceed with PCR amplification.
PCR Amplification: Place the reaction tubes in a quantitative fluorescent PCR instrument. Set the cycling parameters as follows: 45° C. for 10 minutes; 95° C. for 15 minutes; then 40 cycles of 95° C. for 15 seconds→60° C. for 60 seconds. Single-point fluorescent detection is performed at 60° C., with a reaction volume of 25 μl.
Fluorescent Channel Selection: Select the FAM and HEX/VIC/JOE channels for detection. […]

[2] = system: Human Coronavirus OC43 (HCoV-OC43); format: in vivo; conditions: OC43
[3] = system: Mycoplasma Pneumoniae (MP); experiment: Mycoplasma pneumoniae-infected mouse pneumonia model: lung index; format: in vivo, BALB/C mice; parameters: First Batch Inhibition Rate: unit not given here; conditions: 4 days
[4] = system: Mycoplasma Pneumoniae (MP); experiment: Pathological changes in lung tissue of MP-infected mice (HE staining); format: in vivo, BALB/C mice; parameters: Alveolitis Lesion Degree / Bronchial Damage / Histological Damage Degree: scale not given here
Protocol: Fifty BALB/C mice, weighing 14±1 g, were randomly divided into five groups: a normal control group, a model control group, an azithromycin control group, a high-dose Genipin-1-β-D-gentiobioside group (75 mg/ml) with 15-minute nebulization, and a low-dose Genipin-1-β-D-gentiobioside group (37.5 mg/ml) with 15-minute nebulization. Each group consisted of 10 mice, with an equal number of males and females. Except for the normal control group, all mice were lightly anesthetized with isoflurane and infected intranasally with Mycoplasma Pneumoniae (50 μl per mouse) for three consecutive days. On the day of infection, each treatment group received nebulized medication once daily for four consecutive days, while the normal control group and model control group received nebulized saline under the same conditions. On the fifth day, the mice were weighed, sacrificed by cervical dislocation, and their lung tissues were dissected, weighed, and used to calculate the lung index and lung index inhibition rate; measure the levels of inflammatory factors in the lung tissue; measure the serum CRP levels; and conduct pathological examinations of the lung tissue. The results were statistically analyzed using the t-test for intergroup comparisons.
2.4 Pathological Changes in Mouse Lung Tissue (HE Staining Method)

[5] = system: Human Coronavirus OC43 (HCoV-OC43); format: in vivo; conditions: 4 days
[6] = 37.5 mg/ml nebulization 25 min once daily 4 days
[7] = 75 mg/ml nebulization 25 min once daily 4 days
[8] = High-Dose Group (75 mg/ml nebulization 15 min)
[9] = Low-Dose Group (37.5 mg/ml nebulization 15 min)

COC(=O)C1=CO[C@@H](O[C@@H]2O[C@H](CO[C@@H]3O[C@H](CO)[C@@H](O)[C@H](O)[C@H]3O)[C@@H](O)[C@H](O)[C@H]2O)[C@@H]2C(CO)=CC[C@H]12 [Genipin-1-β-D-gentiobioside]
Inhibition Rate (viral load) [1, 6]: 57.54% and 57.43% | Viral Load in lung tissue [1, 6]: 22127.79 ± 30384.54 copies/ng | Inhibition Rate (viral load) [1, 7]: 56.08% | Viral Load in lung tissue [1, 7]: 22745.57 ± 13287.06 copies/ng | Inhibition Rate (lung index) ([2]; 37.5 mg/kg/d i.v. 4 days): 41.59% | Lung Index ([2]; 37.5 mg/kg/d i.v. 4 days): 0.80 ± 0.08 g lung weight × 100 g/body weight | Inhibition Rate (lung index) ([2]; 75 mg/kg/d i.v. 4 days): 42.34% | Lung Index ([2]; 75 mg/kg/d i.v. 4 days): 0.80 ± 0.05 g lung weight × 100 g/body weight | Inhibition Rate (lung index) ([2]; 150 mg/kg/d i.v. 4 days): 39.93% | Lung Index ([2]; 150 mg/kg/d i.v. 4 days): 0.80 ± 0.07 g lung weight × 100 g/body weight | First Batch Inhibition Rate ([3]; 37.5 mg/ml inhalation 15 min): 73.01 | First Batch Lung Index ([3]; 37.5 mg/ml inhalation 15 min): 0.76 ± 0.09 | Second Batch Inhibition Rate ([3]; 37.5 mg/ml inhalation 15 min): 56.34 | Second Batch Lung Index ([3]; 37.5 mg/ml inhalation 15 min): 0.68 ± 0.08 | First Batch Inhibition Rate ([3]; 75 mg/ml inhalation 15 min): 93.06 | First Batch Lung Index ([3]; 75 mg/ml inhalation 15 min): 0.72 ± 0.05 | Second Batch Inhibition Rate ([3]; 75 mg/ml inhalation 15 min): 64.09 | Second Batch Lung Index ([3]; 75 mg/ml inhalation 15 min): 0.67 ± 0.07 | Alveolitis Lesion Degree [4, 8]: 30.40* | Bronchial Damage [4, 8]: 26.60* | Histological Damage Degree [4, 8]: 1.50 ± 0.55 | Interstitial Inflammatory Cell Infiltration [4, 8]: 30.60* | Pathological changes of lung tissue compared with the model group ([4]; High-Dose Group, HE staining): significantly reduced | Alveolitis Lesion Degree [4, 9]: 39.35 | Bronchial Damage [4, 9]: 52.35 | Histological Damage Degree [4, 9]: 1.90 ± 0.39 | Pathological changes (alveolar wall thickening, inflammatory cell infiltration) compared with the model group ([4]; Low-Dose Group, HE staining): significantly reduced | Inhibition Rate (lung index) ([5]; 9.375 mg/ml inhalation 25 min): 49.42% | Lung Index ([5]; 9.375 mg/ml inhalation 25 min): 0.79 ± 0.09 g lung weight × 100 g/body weight | Inhibition Rate (lung index) ([5]; 18.75 mg/ml inhalation 25 min): 75.73% | Lung Index ([5]; 18.75 mg/ml inhalation 25 min): 0.76 ± 0.04 g lung weight × 100 g/body weight | Inhibition Rate (lung index) ([5]; 37.5 mg/ml inhalation 25 min): 90.30% | Lung Index ([5]; 37.5 mg/ml inhalation 25 min): 0.74 ± 0.08 g lung weight × 100 g/body weight | Inhibition Rate (lung index) ([5]; 75 mg/ml inhalation 25 min): 102.88% | Lung Index ([5]; 75 mg/ml inhalation 25 min): 0.72 ± 0.05 g lung weight × 100 g/body weight
